Holding throughout (type): biochemical
One experiment addresses T1, AKT1 (Homo sapiens, UniProt P31749).
T1 construct: purchased SignalChem
The experiment can be described thus: AKT Kinase Assay (IMAP fluorescent polarisation) vs AKT1. The following applies: activated AKT1, FAM Crosstide substrate. The method, then: (§1) Testing of the compounds was performed using an AKT Kinase Assay:
(§2) Activated AKT isoforms 1, 2 and 3 were assayed utilising a 5′ FAM Crosstide (Seq. GRPRTSSFAEG-OH). The extent of kinase phosphorylation was determined by fluorescent polarisation using IMAP progressive binding reagent, which introduces binding beads which allow the reagent to specifically bind to phosphate residues via covalent co-ordination complex bonds.
(§3) iMAP binding solution stops Crosstide/kinase interaction and specifically binds phosphorylated substrates. The degree of phosphorylation is determined by fluorescent polarisation (excitation 485 nm; emission 528 nm) or the reduction in speed of rotation of the excited substrate.
(§4) The following materials were used in the assay: • a) Activated AKT isoforms (SignalChem.) dissolved in Complete Reaction buffer at a pre-determined concentration selected so that the assay was carried out in the linear range. • b) AKT substrate peptide: FAM Crosstide (R7110) Molecular Devices, diluted in complete reaction buffer. • c) iMAP Progressive Screening Express Kit (R8127) Molecular Devices • d) Complete Reaction Buffer containing 0.1% BSA, 10 mM Tris-HCl, 10 mM MgCl2, 0.05% NaN3 and 0.01% phosphate free BSA, 1 mM DTT • e) Progressive Binding Solution containing 75% Buffer A, 25% Buffer B and low volume Binding Reagent which contains the binding entity for the assay • f) ATP diluted in complete reaction buffer • g) Black polystyrene 384 well assay plates (Nunc). • h) Biotek Synergy 4 Hybrid Plate reader.
(§5) 50 μl of test compound was dissolved in DMSO (Sigma Aldrich) and serially diluted in complete reaction buffer to give a fourteen point half log dose response and plated into 384 well black plates. The compound was incubated at room temperature with activated AKT isoform ([…]) at the pre-determined concentration, for 45 minutes.
(§6) […] of ATP solution mixed with 2.5 μl of AKT substrate peptide (FAM Crosstide (R7110) Molecular Devices) were dispensed into each well and the plate centrifuged at 1000 rpm for 20 seconds to ensure homogenous mixing of reagents. The reaction mix was incubated in the dark for one hour at room temperature.
(§7) The kinase reaction was stopped by the addition of Progressive Binding Solution and the mixture allowed to equilibrate for one hour in the dark, at room temperature.
(§8) The fluorescent polarisation generated in each well was determined using a […] Synergy 4 Hybrid plate reader. In brief, each reaction solution was excited at 485 nm with the emission measured at 528 nm in both the parallel and perpendicular pathway.
(§9) The polarisation value generated in each well was calculated by Gen5 software (Biotek) and the % inhibition of kinase activity compared to vehicle control was calculated via GraphPad Prism. IC50 values for each compound were calculated by non-linear regression analysis using Prism software.
(§10) All plates were internally controlled by two methods. Firstly, by calculating the signal:noise ratio; based on kinase polarisation without inhibitor and polarisation generated by complete reaction buffer in the absence of activated kinase. Secondly by determining IC50 values generated by known inhibitors of the AKT isoforms.

The target in a further experiment is T2, AKT2 (Homo sapiens, UniProt P31751).
T2 construct: purchased SignalChem
T2 sequence (P31751 whole entry): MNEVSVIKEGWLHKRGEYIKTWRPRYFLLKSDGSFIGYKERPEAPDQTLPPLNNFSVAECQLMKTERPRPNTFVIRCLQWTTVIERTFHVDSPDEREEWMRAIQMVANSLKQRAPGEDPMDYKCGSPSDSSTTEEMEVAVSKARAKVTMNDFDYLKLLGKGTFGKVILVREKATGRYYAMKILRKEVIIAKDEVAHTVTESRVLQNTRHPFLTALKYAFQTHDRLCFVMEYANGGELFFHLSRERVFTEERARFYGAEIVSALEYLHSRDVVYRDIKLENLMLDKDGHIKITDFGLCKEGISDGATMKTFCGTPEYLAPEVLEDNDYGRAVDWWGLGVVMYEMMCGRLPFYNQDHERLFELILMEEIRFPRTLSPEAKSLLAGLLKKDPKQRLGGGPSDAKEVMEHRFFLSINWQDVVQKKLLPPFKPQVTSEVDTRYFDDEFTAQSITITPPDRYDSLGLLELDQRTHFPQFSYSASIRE
As to the kind of experiment: AKT Kinase Assay (IMAP fluorescent polarisation) vs AKT2. The following applies: activated AKT2, FAM Crosstide substrate. How it is done: as §1, §2, §3, §4, §5, §6, §7, §8, §9, §10

For a further experiment, the target named is T3, AKT3 (Homo sapiens, UniProt Q9Y243).
T3 construct: purchased SignalChem
T3 sequence (Q9Y243 whole entry): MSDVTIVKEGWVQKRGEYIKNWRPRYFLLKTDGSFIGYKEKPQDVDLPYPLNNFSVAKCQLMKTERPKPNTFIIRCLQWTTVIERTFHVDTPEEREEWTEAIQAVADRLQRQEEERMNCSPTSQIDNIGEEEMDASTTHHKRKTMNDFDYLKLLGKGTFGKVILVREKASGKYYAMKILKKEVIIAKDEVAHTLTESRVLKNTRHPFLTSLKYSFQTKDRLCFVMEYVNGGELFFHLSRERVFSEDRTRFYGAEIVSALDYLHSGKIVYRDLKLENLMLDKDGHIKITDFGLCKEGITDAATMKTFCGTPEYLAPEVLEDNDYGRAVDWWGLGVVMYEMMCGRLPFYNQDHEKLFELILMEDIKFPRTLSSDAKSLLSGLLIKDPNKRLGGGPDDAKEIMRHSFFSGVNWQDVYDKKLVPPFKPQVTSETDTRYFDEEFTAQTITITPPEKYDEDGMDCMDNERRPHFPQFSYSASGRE
The experiment can be described thus: AKT Kinase Assay (IMAP fluorescent polarisation) vs AKT3. To be noted: activated AKT3, FAM Crosstide substrate. The method, then: as §1, §2, §3, §4, §5, §6, §7, §8, §9, §10

IC50 data for 23 molecules are collected here from patent US20120309739A1, “AKT / PKB INHIBITORS” (ALMAC DISCOVERY LIMITED, priority 2009, published 2012).

The structures appear in SMILES notation.

T1 sequence (P31749 whole entry): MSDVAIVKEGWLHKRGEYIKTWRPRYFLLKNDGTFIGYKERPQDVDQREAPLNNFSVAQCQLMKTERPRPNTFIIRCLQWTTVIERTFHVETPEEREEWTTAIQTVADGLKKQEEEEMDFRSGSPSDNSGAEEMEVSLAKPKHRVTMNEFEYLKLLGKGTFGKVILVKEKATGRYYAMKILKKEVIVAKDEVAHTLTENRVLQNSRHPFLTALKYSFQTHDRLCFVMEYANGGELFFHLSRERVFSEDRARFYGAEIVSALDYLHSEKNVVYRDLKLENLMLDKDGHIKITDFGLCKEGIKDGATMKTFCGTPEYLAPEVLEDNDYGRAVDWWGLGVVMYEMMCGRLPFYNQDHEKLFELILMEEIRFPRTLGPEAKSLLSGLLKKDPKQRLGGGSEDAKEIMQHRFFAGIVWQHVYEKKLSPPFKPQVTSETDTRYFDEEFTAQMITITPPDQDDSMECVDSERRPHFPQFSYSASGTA

As usually defined, the IC50 is the concentration needed to halve the response being measured. `NC1(c2ccc(-c3oc4cc[nH]c(=O)c4c3-c3ccccc3)cc2)CCC1` [Example 18, 2-(4-(1-Aminocyclobutyl)phenyl)-3-phenylfuro[3,2-c]pyridin-4(5H)-one]: the figures for the half-inhibitory concentration (IC50) at AKT1, on AKT2 and on AKT3 were 100 to 1000 nM, 1000 to 10000 nM and over 10 µM, respectively.
The corresponding values for `NC1(c2ccc(-c3oc4ncccc4c3-c3ccccc3)cc2)CCC1` [Example 19, 1-(4-(3-Phenylfuro[2,3-b]pyridin-2-yl)phenyl)cyclobutanamine] are over 10000 nM, over 10000 nM and over 10 µM.
The corresponding values for `NC1(c2ccc(-c3oc4ncncc4c3-c3ccccc3)cc2)CCC1` [Example 20, 1-(4-(5-Phenylfuro[2,3-d]pyrimidin-6-yl)phenyl)cyclobutanamine] are 1000 to 10000 nM, 1000 to 10000 nM and over 10 µM.
Take `NC1(c2ccc(-c3oc4ncc([N+](=O)[O-])cc4c3-c3ccccc3)cc2)CCC1` [Example 21, 1-(4-(5-Nitro-3-phenylfuro[2,3-b]pyridin-2-yl)phenyl)cyclobutanamine]: the IC50 at AKT1 was 1000 to 10000 nM; on AKT2, 1000 to 10000 nM; on AKT3, over 10 µM.
Consider `Nc1cnc2oc(-c3ccc(C4(N)CCC4)cc3)c(-c3ccccc3)c2c1` [Example 22, 2-(4-(1-Aminocyclobutyl)phenyl)-3-phenylfuro[2,3-b]pyridin-5-amine], for which the IC50 on AKT1 was 1000 to 10000 nM; on AKT2 it was 1000 to 10000 nM; at AKT3, over 10 µM.
In the case of `NC1(c2ccc(-c3c(-c4ccccc4)oc4cccnc34)cc2)CCC1` [Example 23, 1-(4-(2-Phenylfuro[3,2-b]pyridin-3-yl)phenyl)cyclobutanamine], the IC50 on AKT1 is over 10000 nM; at AKT2 it was over 10000 nM; at AKT3, over 10 µM.
In the case of `N#Cc1ccc2c(-c3ccccc3)c(-c3ccc(C4(N)CCC4)cc3)oc2c1` [Example 25, 2-(4-(1-Aminocyclobutyl)phenyl)-3-phenylbenzofuran-6-carbonitrile], the IC50 was 1000 to 10000 nM on AKT1, 1000 to 10000 nM on AKT2 and over 10 µM at AKT3.
`COc1nc(N(C)C)nc2oc(-c3ccc(C4(N)CCC4)cc3)c(-c3ccccc3)c12` [Example 26, 6-(4-(1-Aminocyclobutyl)phenyl)-4-methoxy-N,N-dimethyl-5-phenylfuro[2,3-d]pyrimidin-2-amine]: the IC50 on AKT1 is 100 to 1000 nM; on AKT2 it was 1000 to 10000 nM; on AKT3, over 10 µM.
On to `COc1nc(N2CC(CN)C2)nc2oc(-c3ccc(C4(N)CCC4)cc3)c(-c3ccccc3)c12` [Example 27, 1-(4-(2-(3-(Aminomethyl)azetidin-1-yl)-4-methoxy-5-phenylfuro[2,3-d]pyrimidin-6-yl)phenyl)cyclobutanamine], for which the results for the IC50 at AKT1, on AKT2 and on AKT3 were 100 to 1000 nM, 100 to 1000 nM and 1 to 10 µM, respectively.
As for `NC1(c2ccc(-c3oc4ncc(N5CCOCC5)cc4c3-c3ccccc3)cc2)CCC1` [Example 28, 1-(4-(5-Morpholino-3-phenylfuro[2,3-b]pyridin-2-yl)phenyl)cyclobutanamine], the IC50 on AKT1 was over 10000 nM; on AKT2, 1000 to 10000 nM; at AKT3 it was over 10 µM.
`NC1(c2ccc(-c3oc4ccccc4c(=O)c3-c3ccccc3)cc2)CCC1` [Example 29, 2-[4-(1-Amino-cyclobutyl)-phenyl]-3-phenyl-chromen-4-one hydrogen chloride*]: the half-maximal inhibitory concentration (IC50) on AKT1 is 1000 to 10000 nM; at AKT2, 1000 to 10000 nM; on AKT3, over 10 µM.
As for `N#Cc1cccc2c(-c3ccccc3)c(-c3ccc(C4(N)CNC4)cc3)oc12` [Example 30, 2-(4-(3-Aminoazetidin-3-yl)phenyl)-3-phenylbenzofuran-7-carbonitrile], the IC50 on AKT1 is 100 to 1000 nM; on AKT2, over 10000 nM; at AKT3, over 10 µM.
The corresponding values for `COc1nc(N)nc2oc(-c3ccc(C4(N)CCC4)cc3)c(-c3ccccc3)c12` [Example 31, 6-(4-(1-Aminocyclobutyl)phenyl)-4-methoxy-5-phenylfuro[2,3-d]pyrimidin-2-amine] are at most 100 nM, 100 to 1000 nM and over 10 µM.
On to `COc1nc(N2CCN(CCN(C)C)CC2)nc2oc(-c3ccc(C4(N)CCC4)cc3)c(-c3ccccc3)c12` [Example 33, 1-(4-(2-(4-(2-(Dimethylamino)ethyl)piperazin-1-yl)-4-methoxy-5-phenylfuro[2,3-d]pyrimidin-6-yl)phenyl)cyclobutanamine], for which the IC50 lay within 100 to 1000 nM at AKT1, 100 to 1000 nM on AKT2 and 1 to 10 µM on AKT3.
Turning to `COc1nc(NCCN2CCN(C)CC2)nc2oc(-c3ccc(C4(N)CCC4)cc3)c(-c3ccccc3)c12` [Example 34, 6-(4-(1-Aminocyclobutyl)phenyl)-4-methoxy-N-(2-(4-methylpiperazin-1-yl)ethyl)-5-phenylfuro[2,3-d]pyrimidin-2-amine], the IC50 on AKT1 is at most 100 nM; on AKT2, 100 to 1000 nM; on AKT3 it was 1 to 10 µM.
For `COc1nc(N2CC[C@H](O)C2)nc2oc(-c3ccc(C4(N)CCC4)cc3)c(-c3ccccc3)c12` [Example 35, (S)-1-(6-(4-(1-Aminocyclobutyl)phenyl)-4-methoxy-5-phenylfuro[2,3-d]pyrimidin-2-yl)pyrrolidin-3-ol] the same measures were 100 to 1000 nM, 100 to 1000 nM and 1 to 10 µM.
The corresponding values for `COc1nc(NCCO)nc2oc(-c3ccc(C4(N)CCC4)cc3)c(-c3ccccc3)c12` [Example 38, 2-((6-(4-(1-Aminocyclobutyl)phenyl)-4-methoxy-5-phenylfuro[2,3-d]pyrimidin-2-yl)amino)ethanol] are at most 100 nM, 100 to 1000 nM and over 10 µM.
`COc1nc(N2CCC(N)CC2)nc2oc(-c3ccc(C4(N)CCC4)cc3)c(-c3ccccc3)c12` [Example 39, 1-(6-(4-(1-Aminocyclobutyl)phenyl)-4-methoxy-5-phenylfuro[2,3-d]pyrimidin-2-yl)piperidin-4-amine]: the figures for the IC50 at AKT1, on AKT2 and at AKT3 were 100 to 1000 nM, 100 to 1000 nM and 1 to 10 µM, respectively.
`COc1nc(N2CCC(O)CC2)nc2oc(-c3ccc(C4(N)CCC4)cc3)c(-c3ccccc3)c12` [Example 40, 1-(6-(4-(1-Aminocyclobutyl)phenyl)-4-methoxy-5-phenylfuro[2,3-d]pyrimidin-2-yl)piperidin-4-ol]: the IC50 was 100 to 1000 nM at AKT1, 100 to 1000 nM on AKT2 and over 10 µM on AKT3.
As for `COc1nc(NCCCO)nc2oc(-c3ccc(C4(N)CCC4)cc3)c(-c3ccccc3)c12` [Example 41, 3-((6-(4-(1-Aminocyclobutyl)phenyl)-4-methoxy-5-phenylfuro[2,3-d]pyrimidin-2-yl)amino)propan-1-ol], the IC50 is at most 100 nM on AKT1, 100 to 1000 nM at AKT2 and over 10 µM at AKT3.
Regarding `COCCNc1nc(OC)c2c(-c3ccccc3)c(-c3ccc(C4(N)CCC4)cc3)oc2n1` [Example 42, 6-(4-(1-Aminocyclobutyl)phenyl)-4-methoxy-N-(2-methoxyethyl)-5-phenylfuro[2,3-d]pyrimidin-2-amine], the IC50 at AKT1 is 100 to 1000 nM; at AKT2 it was 100 to 1000 nM; on AKT3, over 10 µM.
Regarding `COc1nc(NCCN)nc2oc(-c3ccc(C4(N)CCC4)cc3)c(-c3ccccc3)c12` [Example 43, N^1-(6-(4-(1-Aminocyclobutyl)phenyl)-4-methoxy-5-phenylfuro[2,3-d]pyrimidin-2-yl)ethane-1,2-diamine], the IC50 at AKT1 lay within 100 to 1000 nM; at AKT2, 100 to 1000 nM; at AKT3, 1 to 10 µM.
As for `COc1nc(-n2ccnc2)nc2oc(-c3ccc(C4(N)CCC4)cc3)c(-c3ccccc3)c12` [Example 44, 1-(4-(2-(1H-Imidazol-1-yl)-4-methoxy-5-phenylfuro[2,3-d]pyrimidin-6-yl)phenyl)cyclobutanamine], the results for the IC50 at AKT1, at AKT2 and at AKT3 were at most 100 nM, 100 to 1000 nM and over 10 µM, respectively.
